Here are results for 50 molecules from patent publication US8143288B2, “Inhibitors of HCV replication” (priority 2005, dated 2012).

By EC50 is commonly meant the concentration giving half of the maximal effect.

For the assay, the system named is HCV 1b-377-neo replicon cells. The experiment in a line: HCV replicon FRET assay. The format is cell-based. Conditions: Hepatitis C virus; HCV replicon; read-out: Activity (EC50). A general note: In antiviral work, replicon cells carry a viral genome segment that copies itself.
Take `O=C(Nc1ccc(/C=C/c2ccc(NC(=O)[C@@H]3CCCN3C(=O)c3ccccc3NCc3ccccn3)cc2)cc1)[C@@H]1CCCN1C(=O)c1ccccc1NCc1ccccn1` [Example 161]: the EC50 lay in the range of 1000 to 10000 nM. Next, `CN(C)[C@H]1C[C@@H](C(=O)Nc2ccc(/C=C/c3ccc(NC(=O)[C@@H]4C[C@H](N(C)C)CN4C(=O)Cc4ccccc4)cc3)cc2)N(C(=O)Cc2ccccc2)C1` [Example 225]: 0.1 to 90 nM; `O=C(Nc1ccc(/C=C/c2ccc(NC(=O)[C@@H]3CCCN3C(=O)Cc3ccccc3)cc2)cc1)C1CC1` [Example 292]: 100 to 1000 nM.

For the molecule `C=Cc1ccccc1C(=O)N1CCC[C@H]1C(=O)Nc1ccc(/C=C/c2ccc(NC(=O)[C@@H]3CCCN3C(=O)c3ccccc3C=C)cc2)cc1` [Example 238], the 50% effective concentration (EC50) was in the range of 1000 to 10000 nM.

Take `CCc1ccccc1C(=O)Nc1ccc(/C=C/c2ccc(NC(=O)[C@@H]3CCCN3C(=O)Cc3ccccc3)cc2)cc1` [Example 265]: the half-maximal effective concentration (EC50) is 100 to 1000 nM. Consider `CCCc1c(C(=O)N2CCC[C@H]2C(=O)Nc2ccc(/C=C/c3ccc(NC(=O)[C@@H]4CCCN4C(=O)c4cnn(-c5ccccc5)c4CCC)cc3)cc2)cnn1-c1ccccc1` [Example 175], for which the half-maximal effective concentration (EC50) fell in the range of 1000 to 10000 nM. To `O=C(Nc1ccc(/C=C/c2ccc(NC(=O)[C@@H]3CCCN3C(=O)COc3cccc(Cl)c3)cc2)cc1)[C@@H]1CCCN1C(=O)COc1cccc(Cl)c1` [Example 38] belongs 100 to 1000 nM; to `CC(C)NC(=O)O[C@@H]1C[C@@H](C(=O)Nc2ccc(/C=C/c3ccc(NC(=O)[C@@H]4C[C@@H](O)CN4C(=O)OCc4ccccc4)cc3)cc2)N(C(=O)OCc2ccccc2)C1` [Example 246], 1000 to 10000 nM; to `CC(C)(C)OC(=O)N1c2ccccc2C[C@H]1C(=O)Nc1ccc(/C=C/c2ccc(NC(=O)[C@@H]3Cc4ccccc4N3C(=O)OC(C)(C)C)cc2)cc1` [Example 20], 100 to 1000 nM. To `CN(C)c1ccc(C(=O)N2CCC[C@H]2C(=O)Nc2ccc(/C=C/c3ccc(NC(=O)[C@@H]4CCCN4C(=O)C4CCC4)cc3)cc2)cc1` [Example 92] belongs 0.1 to 90 nM; to `Cc1nocc1C(=O)N1CCC[C@H]1C(=O)Nc1ccc(/C=C/c2ccc(NC(=O)[C@@H]3CCCN3C(=O)c3conc3C)cc2)cc1` [Example 201], 0.1 to 90 nM. With `CCc1ccccc1C(=O)N1CCC[C@@H]1C(=O)Nc1ccc(/C=C/c2ccc(NC(=O)[C@@H]3CCCN3C(=O)c3ccccc3CC)cc2)cc1` [Example 124], the concentration giving a half-maximal response (EC50) lay in the range of 1000 to 10000 nM. Consider `Cc1cccc(C(=O)N2CCC[C@H]2C(=O)Nc2ccc(/C=C/c3ccc(NC(=O)[C@@H]4CCCN4C(=O)c4cccc(C)n4)cc3)cc2)n1` [Example 114], for which the 50% effective concentration (EC50) lay within 100 to 1000 nM. Regarding `COc1cccc(CC(=O)N2CCC[C@H]2C(=O)Nc2ccc(/C=C/c3ccc(NC(=O)[C@@H]4CCCN4C(=O)Cc4cccc(OC)c4)cc3)cc2)c1` [Example 25], the EC50 lay within 100 to 1000 nM.

Turning to `Cc1cc(C)c(S(=O)(=O)N2CCC[C@H]2C(=O)Nc2ccc(/C=C/c3ccc(NC(=O)[C@@H]4CCCN4S(=O)(=O)c4c(C)cc(C)cc4C)cc3)cc2)c(C)c1` [Example 279], the EC50 lay within 100 to 1000 nM. As for `O=C(Nc1ccc(/C=C/c2ccc(NC(=O)[C@@H]3CCCCN3C(=O)OCc3ccccc3)cc2)cc1)[C@@H]1CCCCN1C(=O)OCc1ccccc1` [Example 9], the EC50 was 0.1 to 90 nM. As for `O=C(Nc1ccc(/C=C/c2ccc(NC(=O)[C@@H]3CCCN3C(=O)c3cccnc3Sc3ccccc3)cc2)cc1)[C@@H]1CCCN1C(=O)c1cccnc1Sc1ccccc1` [Example 196], the concentration for a half-maximal effect (EC50) was in the range of 1000 to 10000 nM. In the case of `Cc1nc(C(F)(F)F)ccc1C(=O)N1CCC[C@H]1C(=O)Nc1ccc(/C=C/c2ccc(NC(=O)[C@@H]3CCCN3C(=O)c3ccc(C(F)(F)F)nc3C)cc2)cc1` [Example 194], the half-maximal effective concentration (EC50) was in the range of 100 to 1000 nM. For `Cc1ccc(C(=O)N2CCC[C@H]2C(=O)Nc2ccc(/C=C/c3ccc(NC(=O)[C@@H]4CCCN4C(=O)c4ccc(C)nc4)cc3)cc2)cn1` [Example 80], the concentration for a half-maximal effect (EC50) was in the range of 100 to 1000 nM. As for `Cc1cc(/C=C/c2ccc(NC(=O)[C@@H]3CCCN3C(=O)Cc3ccccc3)c(C)c2)ccc1NC(=O)[C@@H]1CCCN1C(=O)Cc1ccccc1` [Example 277], the concentration for a half-maximal effect (EC50) fell in the range of 0.1 to 90 nM. Next, `Cn1cccc1C(=O)N1CCC[C@H]1C(=O)Nc1ccc(/C=C/c2ccc(NC(=O)[C@@H]3CCCN3C(=O)c3cccn3C)cc2)cc1` [Example 121]: 0.1 to 90 nM; `O=C(Nc1ccc(/C=C/c2ccc(NC(=O)[C@@H]3CCCN3C(=O)C3CC(=O)N(CCc4cccs4)C3)cc2)cc1)[C@@H]1CCCN1C(=O)C1CC(=O)N(CCc2cccs2)C1` (some centres unmarked) [Example 156]: 1000 to 10000 nM. To `COc1ccc(C(=O)N2CCC[C@H]2C(=O)Nc2ccc(/C=C/c3ccc(NC(=O)[C@@H]4CCCN4C(=O)c4ccc(OC)nc4OC)cc3)cc2)c(OC)n1` [Example 193] belongs 1000 to 10000 nM. In the case of `Cc1ncccc1C(=O)N1CCC[C@H]1C(=O)Nc1ccc(/C=C/c2ccc(NC(=O)[C@@H]3CCCN3C(=O)c3cccnc3C)cc2)cc1` [Example 76], the concentration giving a half-maximal response (EC50) was 100 to 1000 nM. On to `CC(Oc1cccc(Cl)c1)C(=O)N1CCC[C@H]1C(=O)Nc1ccc(/C=C/c2ccc(NC(=O)[C@@H]3CCCN3C(=O)C(C)Oc3cccc(Cl)c3)cc2)cc1` (some centres unmarked) [Example 29], for which the EC50 lay within 100 to 1000 nM. To `CC(C)(C)O[C@@H]1C[C@@H](C(=O)Nc2ccc(/C=C/c3ccc(NC(=O)[C@@H]4C[C@@H](OC(C)(C)C)CN4C(=O)Cc4ccccc4)cc3)cc2)N(C(=O)Cc2ccccc2)C1` [Example 295] belongs 1000 to 10000 nM.

As for `NC(=O)C1(C(=O)N2CCC[C@H]2C(=O)Nc2ccc(/C=C/c3ccc(NC(=O)[C@@H]4CCCN4C(=O)C4(C(N)=O)CC4)cc3)cc2)CC1` [Example 62], the 50% effective concentration (EC50) was in the range of 100 to 1000 nM. Consider `O=C(Nc1ccc(/C=C/c2ccc(NC(=O)[C@@H]3CCCN3C(=O)C3Cc4ccccc43)cc2)cc1)[C@@H]1CCCN1` (some centres unmarked) [Example 115], for which the EC50 lay in the range of 1000 to 10000 nM. For `CC(=O)N1CC=C[C@H]1C(=O)Nc1ccc(/C=C/c2ccc(NC(=O)[C@@H]3C=CCN3C(=O)Cc3ccccn3)cc2)cc1` [Example 216], the EC50 was 0.1 to 90 nM. Turning to `CC(C)(C)OC(=O)N1CC(C(=O)N2CCC[C@H]2C(=O)Nc2ccc(/C=C/c3ccc(NC(=O)[C@@H]4CCCN4C(=O)C4CN(C(=O)OC(C)(C)C)C4)cc3)cc2)C1` [Example 112], the EC50 was in the range of 100 to 1000 nM. Next, `O=C(Nc1ccc(/C=C/c2ccc(NC(=O)[C@@H]3CCCN3C(=O)OCc3ccccc3)cc2)cc1)[C@@H]1CCCN1C(=O)OCc1ccccc1` [Example 2]: 0.1 to 90 nM. Regarding `Cn1cc(C(=O)N2CCC[C@H]2C(=O)Nc2ccc(/C=C/c3ccc(NC(=O)[C@@H]4CCCN4C(=O)c4cn(C)c5ccccc45)cc3)cc2)c2ccccc21` [Example 207], the 50% effective concentration (EC50) lay within 100 to 1000 nM.

`O=C(Nc1ccc(/C=C/c2ccc(NC(=O)[C@@H]3C=CCN3C(=O)Cc3ccncc3)cc2)cc1)[C@@H]1C=CCN1C(=O)Cc1ccncc1` [Example 221]: the half-maximal effective concentration (EC50) was in the range of 100 to 1000 nM. `CCOC(=O)N1CCC[C@H]1C(=O)Nc1ccc(/C=C/c2ccc(NC(=O)[C@@H]3CCCN3C(=O)OCC)cc2)cc1` [Example 57]: the 50% effective concentration (EC50) fell in the range of 100 to 1000 nM. For `CCc1cc(Br)ccc1S(=O)(=O)N1CCC[C@H]1C(=O)Nc1ccc(/C=C/c2ccc(NC(=O)[C@@H]3CCCN3S(=O)(=O)c3ccc(Br)cc3CC)cc2)cc1` [Example 278], the EC50 was in the range of 1000 to 10000 nM. With `Cc1nc(-c2cccnc2)sc1C(=O)N1CCC[C@H]1C(=O)Nc1ccc(/C=C/c2ccc(NC(=O)[C@@H]3CCCN3C(=O)c3sc(-c4cccnc4)nc3C)cc2)cc1` [Example 185], the half-maximal effective concentration (EC50) was 1000 to 10000 nM. Consider `O=C(Nc1ccc(/C=C/c2ccc(NC(=O)[C@@H]3CCCN3C(=O)c3ccccc3-n3cccc3)cc2)cc1)[C@@H]1CCCN1C(=O)c1ccccc1-n1cccc1` [Example 137], for which the EC50 fell in the range of 1000 to 10000 nM. Next, `O=C(Nc1ccc(/C=C/c2ccc(NC(=O)[C@@H]3CCCN3C(=O)Cc3cccc4ccccc34)cc2)cc1)[C@@H]1CCCN1C(=O)Cc1cccc2ccccc12` [Example 181]: 100 to 1000 nM. For the molecule `O=C(Nc1ccc(/C=C/c2ccc(NC(=O)[C@@H]3CCCN3C(=O)c3n[nH]c4ccccc34)cc2)cc1)[C@@H]1CCCN1C(=O)c1n[nH]c2ccccc12` [Example 212], the EC50 was 0.1 to 90 nM. To `CCOc1ccccc1C(=O)N1CCC[C@H]1C(=O)Nc1ccc(/C=C/c2ccc(NC(=O)[C@@H]3CCCN3C(=O)c3ccccc3OCC)cc2)cc1` [Example 158] belongs 1000 to 10000 nM. For `COc1cccc(C(=O)N2CCC[C@H]2C(=O)Nc2ccc(/C=C/c3ccc(NC(=O)[C@@H]4CCCN4C(=O)c4cccc(OC)c4)cc3)cc2)c1` [Example 32], the EC50 was in the range of 0.1 to 90 nM.

In the case of `CC(C)C(=O)N1CC=C[C@H]1C(=O)Nc1ccc(/C=C/c2ccc(NC(=O)[C@@H]3C=CCN3C(=O)C(C)C)cc2)cc1` [Example 73], the EC50 fell in the range of 100 to 1000 nM. To `CC(=O)N1CCC[C@H]1C(=O)Nc1ccc(/C=C/c2ccc(NC(=O)[C@@H]3CCCN3C(=O)Cc3cccnc3)cc2)cc1` [Example 50] belongs 0.1 to 90 nM.

Turning to `CC(C)(C)O[C@@H]1C[C@@H](C(=O)Nc2ccc(/C=C/c3ccc(NC(=O)[C@@H]4C[C@@H](OC(C)(C)C)CN4C(=O)[C@H]4CCCO4)cc3)cc2)N(C(=O)[C@H]2CCCO2)C1` [Example 130], the 50% effective concentration (EC50) lay in the range of 0.1 to 90 nM. For `Cc1cccnc1C(=O)N1CCC[C@H]1C(=O)Nc1ccc(/C=C/c2ccc(NC(=O)[C@@H]3CCCN3C(=O)c3ncccc3C)cc2)cc1` [Example 177], the 50% effective concentration (EC50) lay in the range of 1000 to 10000 nM. To `O=C(Nc1ccc(/C=C/c2ccc(NC(=O)[C@@H]3CCCN3C(=O)C3CC3)cc2)cc1)[C@@H]1CCCN1C(=O)Cc1cccnc1` [Example 63] belongs 0.1 to 90 nM; to `CC(=O)N1C[C@H](OC(C)(C)C)C[C@H]1C(=O)Nc1ccc(/C=C/c2ccc(NC(=O)[C@@H]3C[C@@H](OC(C)(C)C)CN3C(=O)Cc3cccnc3)cc2)cc1` [Example 132], 100 to 1000 nM; to `CCc1cccc(CC)c1C(=O)N1CCC[C@H]1C(=O)Nc1ccc(/C=C/c2ccc(NC(=O)[C@@H]3CCCN3C(=O)c3c(CC)cccc3CC)cc2)cc1` [Example 205], 1000 to 10000 nM.

With `O=C(Nc1ccc(/C=C/c2ccc(NC(=O)[C@@H]3COCN3C(=O)OCc3ccccc3)cc2)cc1)[C@@H]1COCN1C(=O)OCc1ccccc1` [Example 11], the EC50 fell in the range of 1000 to 10000 nM. For `CO[C@H]1C[C@@H](C(=O)Nc2ccc(/C=C/c3ccc(NC(=O)[C@@H]4C[C@H](OC)CN4C(=O)OCc4ccccc4)cc3)cc2)N(C(=O)OCc2ccccc2)C1` [Example 17], the EC50 lay in the range of 1000 to 10000 nM.
